Laboratory results: patent US9556201B2, “Bicyclic pyridines and analogs as sirtuin modulators” (GLAXOSMITHKLINE LLC, priority 2009, dated 2017)

Tests used:
SIRT1 = molecular target: T1, SIRT1 (Homo sapiens, UniProt Q96EB6); experiment: Mass spectrometry based assay to identify modulators of SIRT1 activity (deacetylation of p53-based acetylated peptide substrate); format: biochemical; details: SIRT1 activation; for Emax: 25 min, read-out: % FOLD ACT. (percent maximum fold activation)
T1 sequence (Q96EB6 1-747): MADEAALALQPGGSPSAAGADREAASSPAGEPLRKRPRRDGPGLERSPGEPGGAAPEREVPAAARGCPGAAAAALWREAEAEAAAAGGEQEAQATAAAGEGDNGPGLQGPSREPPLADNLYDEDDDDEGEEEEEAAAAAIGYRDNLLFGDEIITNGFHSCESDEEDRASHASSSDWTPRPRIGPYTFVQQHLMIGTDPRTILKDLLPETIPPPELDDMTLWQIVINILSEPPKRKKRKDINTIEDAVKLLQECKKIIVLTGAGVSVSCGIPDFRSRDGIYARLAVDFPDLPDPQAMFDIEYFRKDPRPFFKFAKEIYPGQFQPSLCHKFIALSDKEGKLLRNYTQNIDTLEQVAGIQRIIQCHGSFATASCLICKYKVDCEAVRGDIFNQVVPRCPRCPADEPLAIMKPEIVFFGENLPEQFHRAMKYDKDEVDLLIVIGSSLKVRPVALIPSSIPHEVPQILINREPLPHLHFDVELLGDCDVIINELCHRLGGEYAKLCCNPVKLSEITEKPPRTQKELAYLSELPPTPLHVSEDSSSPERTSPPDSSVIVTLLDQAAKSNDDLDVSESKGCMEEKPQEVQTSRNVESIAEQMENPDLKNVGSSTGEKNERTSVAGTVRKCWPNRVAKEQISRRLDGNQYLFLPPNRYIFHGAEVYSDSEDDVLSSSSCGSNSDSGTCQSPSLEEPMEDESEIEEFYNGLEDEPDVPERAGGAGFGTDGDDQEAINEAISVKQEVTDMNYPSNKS
In short: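 Deacetylation of a modified p53 acetyl-lysine peptide ([…], 5TMR-labelled, Nle for Met) by 10 nM N-His SIRT1 with 120 μM βNAD+, pH 8, 25 min, 25 °C. Substrate and product masses measured by MS after formic acid quench; nicotinamide defines maximal inhibition.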

TNF = TNF IC50 (column of Table 1; method not shown); format: cell-based

Emax (SIRT1) | EC1.5 (SIRT1) | IC50 (TNF) | SMILES
> 200% | A (EC1.5<1.0 μM) | ≥ 20 µM | Cc1csc(NC(=O)N2CCCOc3ccc(-c4cccc(Cl)c4)nc32)n1 [Compound 607]
> 200% | A (EC1.5<1.0 μM) | < 20 µM | O=C(Nc1ccnc(N2CCC2)c1)N1CCCOc2ccc(-c3cccc(Cl)c3)nc21 [Compound 608]
> 200% | A (EC1.5<1.0 μM) | < 20 µM | O=C(Nc1ccnc(N2CCCC2)c1)N1CCCOc2ccc(-c3cccc(Cl)c3)nc21 [Compound 609]
> 200% | A (EC1.5<1.0 μM) | < 20 µM | O=C(Nc1ccnc(N2CCC2)c1)N1CCCOc2ccc(-c3cccc(N4CCCC4)c3)nc21 [Compound 611]
> 200% | A (EC1.5<1.0 μM) | < 20 µM | O=C(Nc1ccnc(N2CCCC2)c1)N1CCCOc2ccc(-c3cccc(N4CCCC4)c3)nc21 [Compound 612]
> 200% | A (EC1.5<1.0 μM) | < 20 µM | Cc1cc(NC(=O)N2CCCOc3ccc(-c4cccc(Cl)c4)nc32)ccn1 [Compound 613]
> 200% | A (EC1.5<1.0 μM) | ≥ 20 µM | Cc1cc(NC(=O)N2CCCOc3ccc(-c4cccc(N5CCCC5)c4)nc32)ccn1 [Compound 614]
> 200% | A (EC1.5<1.0 μM) | < 20 µM | Cc1cc(NC(=O)N2CCCOc3ccc(-c4cccc(N5CCCC5)c4)nc32)cc(C)n1 [Compound 615]
> 200% | A (EC1.5<1.0 μM) | ≥ 20 µM | Cc1csc(NC(=O)N2CCCc3ccc(-c4cccc(Cl)c4)nc32)n1 [Compound 616]
> 200% | A (EC1.5<1.0 μM) | < 20 µM | O=C(Nc1ccnc(N2CCC2)c1)N1CCCc2ccc(-c3cccc(Cl)c3)nc21 [Compound 617]
> 200% | A (EC1.5<1.0 μM) | ≥ 20 µM | Cc1cc(NC(=O)N2CCOc3ccc(-c4cccc(N5CCCC5)c4)nc32)cc(C)n1 [Compound 618]
> 200% | A (EC1.5<1.0 μM) | < 20 µM | Cc1cc(NC(=O)N2CCOc3ccc(-c4cccc(N(C)C)c4)nc32)cc(C)n1 [Compound 619]
> 200% | A (EC1.5<1.0 μM) | < 20 µM | Cc1csc(NC(=O)N2CCCc3ccc(-c4cccc(F)c4)nc32)n1 [Compound 620]
> 200% | A (EC1.5<1.0 μM) | ≥ 20 µM | Cc1csc(NC(=O)N2CC(C)(C)Oc3ccc(-c4cccc(F)c4)nc32)n1 [Compound 622]
> 200% | A (EC1.5<1.0 μM) | ≥ 20 µM | CN(C)c1cccc(-c2ccc3c(n2)N(C(=O)Nc2cncc(F)c2)CC(C)(C)O3)c1 [Compound 623]
> 200% | A (EC1.5<1.0 μM) | < 20 µM | Cc1csc(NC(=O)N2CC(C)(C)Oc3ccc(-c4cccc(N(C)C)c4)nc32)n1 [Compound 624]
> 200% | A (EC1.5<1.0 μM) | < 20 µM | Cc1cc(NC(=O)N2CCCOc3ccc(-c4cccc(Cl)c4)nc32)cc(C)n1 [Compound 626]
> 200% | A (EC1.5<1.0 μM) | ≥ 20 µM | Cc1cc(NC(=O)N2CCOc3ccc(-c4cccc(C#N)c4)nc32)cc(C)n1 [Compound 631]
> 200% | A (EC1.5<1.0 μM) | < 20 µM | O=C(Nc1cncc(OCC(O)CO)n1)N1CCCc2ccc(-c3cccc(C(F)(F)F)c3)nc21 (stereo not drawn) [Compound 638]
> 200% | A (EC1.5<1.0 μM) | < 20 µM | O=C(Nc1ccnc(OCC(O)CO)n1)N1CCCc2ccc(-c3cccc(C(F)(F)F)c3)nc21 (stereo not drawn) [Compound 639]
> 200% | A (EC1.5<1.0 μM) | < 20 µM | Cc1cncc(NC(=O)N2CCOc3ccc(-c4cccc(N5CCCC5)c4)nc32)c1 [Compound 644]
> 200% | A (EC1.5<1.0 μM) | < 20 µM | O=C(Nc1ccncc1)N1CCCc2ccc(-c3cccc(C(F)(F)F)c3)nc21 [Compound 645]

Emax (SIRT1) | EC1.5 (SIRT1) | IC50 (TNF) | SMILES
> 200% | A (EC1.5<1.0 μM) | < 20 µM | O=C(Nc1ccccn1)N1CCCc2ccc(-c3cccc(C(F)(F)F)c3)nc21 [Compound 646]
> 200% | A (EC1.5<1.0 μM) | ≥ 20 µM | Cc1cc(C)nc(NC(=O)N2CCCc3ccc(-c4cccc(C(F)(F)F)c4)nc32)c1 [Compound 647]
> 200% | A (EC1.5<1.0 μM) | ≥ 20 µM | O=C(Nc1cccnc1)N1CCCc2ccc(-c3cccc(Cl)c3)nc21 [Compound 653]
> 200% | A (EC1.5<1.0 μM) | ≥ 20 µM | Cc1cc(C)nc(NC(=O)N2CCCc3ccc(-c4cccc(Cl)c4)nc32)c1 [Compound 654]
> 200% | A (EC1.5<1.0 μM) | ≥ 20 µM | Cc1cc(NC(=O)N2CC(C)(C)Oc3ccc(-c4cccc(N5CC[C@H](F)C5)c4)nc32)cc(C)n1 [Compound 658]
> 200% | A (EC1.5<1.0 μM) | < 20 µM | Cc1cc(NC(=O)N2CC(C)(C)Oc3ccc(-c4cccc(N5CCOCC5)c4)nc32)cc(C)n1 [Compound 659]
> 200% | A (EC1.5<1.0 μM) | ≥ 20 µM | Cc1cncc(NC(=O)N2CC(C)(C)Oc3ccc(-c4cccc(N5CC[C@H](F)C5)c4)nc32)c1 [Compound 660, (S)-6-(3-(3-fluoropyrrolidin-1-yl)phenyl)-2,2-dimethyl-N-(5-methylpyridin-3-yl)-2H-pyrido[3,2-b][1,4]oxazine-4(3H)-carboxamide]
> 200% | A (EC1.5<1.0 μM) | ≥ 20 µM | CC1(C)CN(C(=O)Nc2cncc(F)c2)c2nc(-c3cccc(N4CC[C@H](F)C4)c3)ccc2O1 [Compound 661]
> 200% | A (EC1.5<1.0 μM) | < 20 µM | Cc1cc(-c2cccc(C(F)(F)F)c2)nc2c1OCCN2C(=O)Nc1ccncc1 [Compound 662]
> 200% | A (EC1.5<1.0 μM) | ≥ 20 µM | Cc1cc(-c2cccc(C(F)(F)F)c2)nc2c1OCCN2C(=O)Nc1ccncc1F [Compound 663]
> 200% | A (EC1.5<1.0 μM) | ≥ 20 µM | Cc1cc(C)nc(NC(=O)N2CCCc3ccc(-c4cccc(F)c4)nc32)c1 [Compound 664]
> 200% | A (EC1.5<1.0 μM) | ≥ 20 µM | Cc1csc(NC(=O)N2CCOc3c(C)cc(-c4cccc(C(F)(F)F)c4)nc32)n1 [Compound 668, 8-methyl-N-(4-methylthiazol-2-yl)-6-(3-(trifluoromethyl)phenyl)-2H-pyrido[3,2-b][1,4]oxazine-4(3H)-carboxamide]
> 200% | A (EC1.5<1.0 μM) | ≥ 20 µM | Cc1cc(-c2cccc(C(F)(F)F)c2)nc2c1OCCN2C(=O)Nc1ccncn1 [Compound 669]
> 200% | A (EC1.5<1.0 μM) | ≥ 20 µM | Cc1cncc(NC(=O)N2CCOc3c(C)cc(-c4cccc(C(F)(F)F)c4)nc32)c1 [Compound 670]
> 200% | A (EC1.5<1.0 μM) | < 20 µM | Cc1cc(NC(=O)N2CCOc3c(C)cc(-c4cccc(C(F)(F)F)c4)nc32)cc(C)n1 [Compound 671]
≤ 200% | A (EC1.5<1.0 μM) | ≥ 20 µM | Cc1cc(C)nc(NC(=O)N2CCOc3c(C)cc(-c4cccc(C(F)(F)F)c4)nc32)c1 [Compound 672]
> 200% | A (EC1.5<1.0 μM) | < 20 µM | Cc1csc(NC(=O)N2CC(C)(C)Oc3ccc(-c4cccc(N5CCOCC5)c4)nc32)n1 [Compound 675]
> 200% | A (EC1.5<1.0 μM) | ≥ 20 µM | O=C(Nc1cccc(OC[C@H](O)CO)n1)N1CCCc2ccc(-c3cccc(C(F)(F)F)c3)nc21 [Compound 678]
> 200% | A (EC1.5<1.0 μM) | < 20 µM | Cc1cc(-c2cccc(C(F)(F)F)c2)nc2c1OCCN2C(=O)Nc1cccc(OCC(O)CO)n1 (stereo not drawn) [Compound 682]
> 200% | A (EC1.5<1.0 μM) | ≥ 20 µM | Cc1cc(-c2cccc(C(F)(F)F)c2)nc2c1OCCN2C(=O)Nc1ccnc(N2CCC2)c1 [Compound 683]
> 200% | A (EC1.5<1.0 μM) | ≥ 20 µM | Cc1csc(NC(=O)N2CCOc3c(C)cc(-c4cccc(Cl)c4)nc32)n1 [Compound 684]
> 200% | A (EC1.5<1.0 μM) | ≥ 20 µM | Cc1cncc(NC(=O)N2CCOc3c(C)cc(-c4cccc(Cl)c4)nc32)c1 [Compound 688]
